MIC data for twelve compounds are collected here from ChEMBL document CHEMBL1155771, “Emergence of KPC-2 and KPC-3 in carbapenem-resistant Klebsiella pneumoniae strains in an Israeli hospital” (2007).

In brackets after ≈: the same amount, converted by molar mass. Some results are limits rather than exact numbers.

Experiment [1] concerns Klebsiella pneumoniae. As to the kind of experiment: Antibacterial activity against carbapenem-resistant Klebsiella pneumoniae 490 isolate producing KPC3 and TEM1 carbapenemases. In kind it is functional.
For experiment [2], the system named is Klebsiella pneumoniae. As to the kind of experiment: Antibacterial activity against carbapenem-resistant Klebsiella pneumoniae 469 isolate producing KPC2, OXA4 and CTX-M-10 carbapenemases. The experiment is classed as functional.
The subject of experiment [3] is Escherichia coli. As to the kind of experiment: Antibacterial activity against sEscherichia coli GeneHogs recipient strain without blaKPC-encoding plasmid.
Experiment [4] has as its system Escherichia coli. As to the kind of experiment: Antibacterial activity against carbapenem-resistant blaKPC-encoding plasmid harboring Escherichia coli GeneHogs transformant of Klebsiella pneumoniae 490 producing KPC3 and TEM1 carbapenemases.
Experiment [5] has as its system Escherichia coli. As to the kind of experiment: Antibacterial activity against carbapenem-resistant blaKPC-encoding plasmid harboring Escherichia coli GeneHogs transformants of Klebsiella pneumoniae 469 producing KPC2, OXA4 and CTX-M-10 carbapenemases.

What is called MIC is the smallest concentration in the dilution series that meets the test's criterion for growth inhibition. Read a high MIC as a need for much substance. Consider `C[C@@H](O)[C@H]1C(=O)N2C(C(=O)O)=C(S[C@@H]3CN[C@H](C(=O)Nc4cccc(C(=O)O)c4)C3)[C@H](C)[C@H]12`, for which the MIC was 64 µg/mL (≈ 135 µM) in experiment [1]; 16 µg/mL (≈ 33.6 µM) in experiment [2]; under 0.25 µg/mL in experiment [3]; 2 µg/mL (≈ 4.21 µM) in experiment [4]; 4 µg/mL (≈ 8.41 µM) in experiment [5].

In the case of `CO/N=C(\C(=O)N[C@@H]1C(=O)N2C(C(=O)[O-])=C(C[N+]3(C)CCCC3)CS[C@H]12)c1csc(N)n1`, the MIC was over 64 µg/mL in experiment [1], over 64 µg/mL in experiment [2] and under 1 µg/mL in experiment [3].

With `NCC[C@H](O)C(=O)N[C@@H]1C[C@H](N)[C@@H](O[C@H]2O[C@H](CN)[C@@H](O)[C@H](O)[C@H]2O)[C@H](O)[C@H]1O[C@H]1O[C@H](CO)[C@@H](O)[C@H](N)[C@H]1O` [AMIKACIN], the MIC was over 64 µg/mL in experiment [1]; 4 µg/mL (≈ 6.83 µM) in experiment [2]; under 2 µg/mL in experiment [3]; under 2 µg/mL in experiment [4]; 16 µg/mL (≈ 27.3 µM) in experiment [5].

As for `C[C@H]1[C@H](NC(=O)/C(=N\OC(C)(C)C(=O)O)c2csc(N)n2)C(=O)N1S(=O)(=O)O` [AZTREONAM], the MIC in experiment [3] was under 1 µg/mL; in experiment [5], 32 µg/mL (≈ 73.5 µM).

Consider `CC(C)(O/N=C(\C(=O)N[C@@H]1C(=O)N2C(C(=O)[O-])=C(C[n+]3ccccc3)CS[C@H]12)c1csc(N)n1)C(=O)O` [CEFTAZIDIME], for which the MIC in experiment [1] is over 64 µg/mL; in experiment [2] it was over 64 µg/mL; in experiment [3] it was under 1 µg/mL; in experiment [4], 16 µg/mL (≈ 29.3 µM); in experiment [5], over 64 µg/mL.

As to `CO/N=C(\C(=O)N[C@@H]1C(=O)N2C(C(=O)O)=C(CSc3nc(=O)c(O)nn3C)CS[C@H]12)c1csc(N)n1` [CEFTRIAXONE], the MIC in experiment [1] was over 64 µg/mL; in experiment [2], over 64 µg/mL; in experiment [3], under 1 µg/mL; in experiment [4], 8 µg/mL (≈ 14.4 µM); in experiment [5] it was over 64 µg/mL.

Take `O=C(O)c1cn(C2CC2)c2cc(N3CCNCC3)c(F)cc2c1=O` [CIPROFLOXACIN]: in experiment [3], the MIC is under 0.25 µg/mL.

`C[C@@H](O)[C@H]1C(=O)N2C(C(=O)O)=C(SCCNC=N)C[C@H]12` [IMIPENEM ANHYDROUS]: the MIC in experiment [1] was 32 µg/mL (≈ 107 µM); in experiment [2], 16 µg/mL (≈ 53.4 µM); in experiment [3], under 0.25 µg/mL; in experiment [4] it was 4 µg/mL (≈ 13.4 µM); in experiment [5], 4 µg/mL (≈ 13.4 µM).

Take `C[C@@H](O)[C@H]1C(=O)N2C(C(=O)O)=C(S[C@@H]3CN[C@H](C(=O)N(C)C)C3)[C@H](C)[C@H]12` [MEROPENEM]: the MIC was 32 µg/mL (≈ 83.4 µM) in experiment [1]; 8 µg/mL (≈ 20.9 µM) in experiment [2]; under 0.25 µg/mL in experiment [3]; 2 µg/mL (≈ 5.22 µM) in experiment [4]; 4 µg/mL (≈ 10.4 µM) in experiment [5].

For `CCN1CCN(C(=O)N[C@@H](C(=O)N[C@@H]2C(=O)N3[C@@H]2SC(C)(C)[C@@H]3C(=O)O)c2ccccc2)C(=O)C1=O` [PIPERACILLIN], the MIC in experiment [1] was over 128 µg/mL; in experiment [2] it was over 128 µg/mL; in experiment [3] it was under 4 µg/mL; in experiment [4], over 128 µg/mL; in experiment [5], over 128 µg/mL.

As to `CN(C)c1cc(NC(=O)CNC(C)(C)C)c(O)c2c1C[C@H]1C[C@H]3[C@H](N(C)C)C(O)=C(C(N)=O)C(=O)[C@@]3(O)C(O)=C1C2=O` [TIGECYCLINE], the MIC turned out to be 2 µg/mL (≈ 3.41 µM) in experiment [1]; 2 µg/mL (≈ 3.41 µM) in experiment [2]; 0.016 µg/mL (≈ 0.0273 µM) in experiment [3]; 0.5 µg/mL (≈ 0.854 µM) in experiment [4]; 0.5 µg/mL (≈ 0.854 µM) in experiment [5].

Consider COLISTIN, for which the MIC in experiment [1] and in experiment [2] was 0.25 µg/mL in each case.
